Earlier results in US4981867A, “Treatment of tremor using compounds that depress calcium currents in thalamic and other central nervous system neurons” (The Board of Trustees of the Leland Stanford Junior …, priority 1989, dated 1991).

Test system: essential-familial tremor
Details: stated as known in background

Compound | suppression of essential-familial tremor
CCC1(c2ccccc2)C(=O)NCNC1=O [primidone] | can be suppressed
CC(C)NCC(O)COc1cccc2ccccc12 (centres unmarked) [propranolol] | can be suppressed
